Test system: psoriasis patients
Assay: topical testing of cleansing/topical compositions on psoriasis patients
Format: in vivo, human
Conditions: in cleansing liquid along with gentle surfactants sodium laureth sulfate and ammonium laureth sulfate; psoriasis effected patients; 5 patients
Description: Most of the cleansing agents contain sodium chloride and/or ammonium chloride and/or potassium chloride.
This invention is lead by desire for developing a new and innovative treatment, which can be used in the longer periods of time without side effect associated with other products. The Topical Composition given in the example being used for more than 6 months and also tested on other psoriasis patients with encouraging results.
Though the exact mechanism of action of quaternary ammonium compounds, such as ammonium chloride, and vanilla is not fully understood, actual testing on psoriasis patients have shown encouraging results without side effects associated with steroids and other presently available psoriasis topical applications.

Structure (SMILES) | keratolytic properties (removing scales)
Cl.N [ammonium chloride] | showing keratolytic properties by removing scales
[Cl-].[Na+] [sodium chloride] | not having keratolytic properties
